Here are results for 19 molecules from patent US8017792B2, “1-thio-D-glucitol derivatives” (Taisho Pharmaceutical Co., Ltd., priority 2005, dated 2011).

For test [1], the target named is T1, Human SGLT2 (Homo sapiens, UniProt P31639).
T1 construct: expressed in transfected cells; host or cells: CHO-K1
T1 sequence (P31639 1-672): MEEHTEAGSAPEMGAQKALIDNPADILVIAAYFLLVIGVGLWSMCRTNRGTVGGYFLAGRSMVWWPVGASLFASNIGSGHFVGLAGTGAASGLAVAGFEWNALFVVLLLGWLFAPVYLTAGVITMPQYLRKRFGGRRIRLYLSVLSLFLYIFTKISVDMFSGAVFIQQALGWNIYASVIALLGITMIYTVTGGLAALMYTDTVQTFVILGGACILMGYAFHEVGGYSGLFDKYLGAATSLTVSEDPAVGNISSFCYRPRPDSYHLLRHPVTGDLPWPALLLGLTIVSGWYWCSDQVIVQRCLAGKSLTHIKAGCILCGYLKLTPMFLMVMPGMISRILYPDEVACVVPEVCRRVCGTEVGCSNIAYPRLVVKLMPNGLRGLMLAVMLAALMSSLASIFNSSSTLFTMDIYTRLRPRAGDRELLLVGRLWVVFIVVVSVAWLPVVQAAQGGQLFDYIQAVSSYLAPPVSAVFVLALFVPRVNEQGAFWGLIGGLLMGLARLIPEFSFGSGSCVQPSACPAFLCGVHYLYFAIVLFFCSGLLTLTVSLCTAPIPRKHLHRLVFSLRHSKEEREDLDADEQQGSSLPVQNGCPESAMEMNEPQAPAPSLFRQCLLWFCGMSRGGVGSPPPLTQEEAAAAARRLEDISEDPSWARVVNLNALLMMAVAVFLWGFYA
Put plainly: Sodium-dependent sugar uptake inhibition test in CHO-K1 cells stably expressing human SGLT2 (Test Example 2). The test is classed as cell-based. Particulars: for IC50: CHO-K1 cells, [14C]methyl-α-D-glucopyranoside 1 mM, 37° C., one hour; for SGLT1/SGLT2: ratio of IC50 human SGLT1 to IC50 human SGLT2. Here is the method:
(§1) Human SGLT1 sequence (NM_000343) was reverse-transcripted from human small intestinal mRNA, then amplified, and then introduced into pCMV-tag5A from Stratagene Corporation. Human SGLT2 sequence (NM_003041) was prepared from human nephric mRNA as with the above method, and then introduced into pcDNA3.1+hygro from Invitrogen Corporation. Each cloned sequence was confirmed to be identical with the reported sequence.
(§2) CHO-K1 cells were transfected with the human SGLT1 and human SGLT2 expression vectors using Lipofectamine 2000 (Invitrogen Corporation). SGLT expression cells were cultured in the presence of geneticin (SGLT1) or hygromycin B (SGLT2) of the concentration of 500 μg/mL to select resistant strains. Cells were obtained using sugar uptake specific activity as an index in the following system.
(§3) Cells stably expressing human SGLT1 and human SGLT2 were used in the sodium-dependent sugar uptake activity inhibition test. Cells were incubated in 1 mL of a pretreatment buffer solution (140 mM choline chloride, 2 mM KCl, 1 mM CaCl2, 1 mM MgCl2, 10 mM HEPES/5 mM Tris, pH 7.4) for 20 minutes. The pretreatment buffer solution was removed and 200 μL of an uptake buffer containing test compounds (methyl-α-D-glucopyranoside containing [^14C]methyl-α-D-glucopyranoside (0.1 mM for SGLT1 inhibition, 1 mM for SGLT2 inhibition), 140 mM NaCl, 2 mM KCl, 1 mM CaCl2, 1 mM MgCl2, 10 mM HEPES/5 mM Tris, pH 7.4) were added, and uptake reaction was performed at 37° C. for 30 minutes (SGLT1) or for one hour (SGLT2). After the reaction, cells were washed with 1 mL of a washing buffer (10 mM methyl-α-D-glucopyranoside, 140 mM choline chloride, 2 mM KCl, 1 mM CaCl2, 1 mM MgCl2, 10 mM HEPES/5 mM Tris, pH 7.4) twice and dissolved in 400 μL of 0.2 M NaOH solution. After Aquazole 2 (Perkin Elmer Corporation) was added and mixed well, radioactivity was measured with a liquid scintillation counter (Beckman Coulter Corporation). A buffer for uptake which contained no test compound was prepared as a control group. Another buffer solution for uptake containing choline chloride in place of NaCl was also prepared for basic uptake.

For test [2], the target named is T2, Human SGLT1 (Homo sapiens, UniProt P13866).
T2 construct: expressed in transfected cells; host or cells: CHO-K1
T2 sequence (P13866 1-664): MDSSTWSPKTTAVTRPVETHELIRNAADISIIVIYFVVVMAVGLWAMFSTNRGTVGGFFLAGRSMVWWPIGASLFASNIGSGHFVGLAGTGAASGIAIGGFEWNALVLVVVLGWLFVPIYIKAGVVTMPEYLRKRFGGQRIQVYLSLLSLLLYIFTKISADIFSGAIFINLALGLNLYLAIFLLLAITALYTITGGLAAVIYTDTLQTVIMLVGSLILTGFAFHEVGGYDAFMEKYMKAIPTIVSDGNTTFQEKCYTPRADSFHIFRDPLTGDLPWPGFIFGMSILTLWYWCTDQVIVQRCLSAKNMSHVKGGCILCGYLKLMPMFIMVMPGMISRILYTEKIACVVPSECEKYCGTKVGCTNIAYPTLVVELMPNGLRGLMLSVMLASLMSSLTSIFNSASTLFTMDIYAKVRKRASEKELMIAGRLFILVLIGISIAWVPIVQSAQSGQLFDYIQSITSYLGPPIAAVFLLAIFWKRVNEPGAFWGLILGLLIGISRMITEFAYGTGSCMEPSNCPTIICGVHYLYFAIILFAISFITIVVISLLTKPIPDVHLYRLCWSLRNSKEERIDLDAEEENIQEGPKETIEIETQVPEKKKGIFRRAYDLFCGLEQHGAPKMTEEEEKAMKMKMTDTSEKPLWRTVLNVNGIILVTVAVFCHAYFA
Briefly: Sodium-dependent sugar uptake inhibition test in CHO-K1 cells stably expressing human SGLT1 (Test Example 2). Particulars: [14C]methyl-α-D-glucopyranoside 0.1 mM, 37° C., 30 minutes. The test is classed as cell-based. The procedure: as §1, §2, §3

The IC50 is the concentration that inhibits the measured activity by half. Consider `CCOc1ccc(Cc2cncc([C@@H]3S[C@H](CO)[C@@H](O)[C@H](O)[C@H]3O)c2)cc1` [Compound 138, (1S)-1,5-anhydro-1-[5-(4-ethoxybenzyl)pyridin-3-yl]-1-thio-D-glucitol], for which, in test [1], it took 33 µM to reach half-maximal inhibition (IC50).
As for `CCOc1ccc(Cc2ccc(OC)c([C@@H]3S[C@H](CO)[C@@H](O)[C@H](O)[C@H]3O)c2)cc1` [Compound 78, (1S)-1,5-Anhydro-1-[3-(4-ethoxybenzyl)-6-methoxy-phenyl]-1-thio-D-glucitol], the concentration for half-maximal inhibition (IC50) in test [1] turned out to be 1.04 µM; in test [2], 120 µM. In test [1], the SGLT1/SGLT2 was 115.4.
With `Cc1ccc(Cc2cc([C@@H]3S[C@H](CO)[C@@H](O)[C@H](O)[C@H]3O)ccc2Cl)cc1` [Compound 92, (1S)-1,5-Anhydro-1-[4-chloro-3-(4-methylbenzyl)phenyl]-1-thio-D-glucitol], in test [1], the half-maximal inhibitory concentration (IC50) came to 0.03 µM and the SGLT1/SGLT2 amounted to 7.7. Moreover, in test [2], the IC50 was determined as 0.2 µM.
For the molecule `CCc1ccc(Cc2cc([C@@H]3S[C@H](CO)[C@@H](O)[C@H](O)[C@H]3O)ccc2Cl)cc1` [Compound 95, (1S)-1,5-Anhydro-1-[4-chloro-3-(4-ethylbenzyl)phenyl]-1-thio-D-glucitol], in test [1], the midpoint of inhibition, the IC50, lay at 0.028 µM and the SGLT1/SGLT2 is 22.3.
As for `COc1ccc(Cc2cc([C@@H]3S[C@H](CO)[C@@H](O)[C@H](O)[C@H]3O)ccc2Cl)cc1` [Compound 88, (1S)-1,5-Anhydro-1-[4-chloro-3-(4-methoxybenzyl)phenyl]-1-thio-D-glucitol], in test [1], 0.08 µM corresponded to half-maximal inhibition (IC50) and the SGLT1/SGLT2 came out at 2.8. The same molecule had an IC50 in test [2] of 0.2 µM.
`OC[C@H]1S[C@@H](c2ccc(Cl)c(Cc3cc4ccccc4o3)c2)[C@H](O)[C@@H](O)[C@@H]1O` [Compound 132, (1S)-1,5-Anhydro-1-[3-[(1-benzofuran-2-yl)methyl]-4-chlorophenyl]-1-thio-D-glucitol]: in test [1], the IC50 was found to be 0.497 µM and the SGLT1/SGLT2 is reported as 8.9. The molecule further had an IC50 in test [2] of 4.4 µM.
The like results for `CCOc1ccc(Cc2cc([C@@H]3S[C@H](CO)[C@@H](O)[C@H](O)[C@H]3O)ccc2OC)cc1` [Compound 77, (1S)-1,5-Anhydro-1-[3-(4-ethoxybenzyl)-4-methoxyphenyl]-1-thio-D-glucitol] were, in that order, 0.69 µM, 11.6 and 8 µM.
In test [1], `OC[C@H]1S[C@@H](c2cccc(Cc3ccc(-c4ccccc4)s3)c2)[C@H](O)[C@@H](O)[C@@H]1O` [Compound 134] displayed an IC50 of 2.91 µM. In other words, the single-digit micromolar range.
`CCc1ccc(Cc2ccc([C@@H]3S[C@H](CO)[C@@H](O)[C@H](O)[C@H]3O)s2)cc1` [Compound 139, (1S)-1,5-anhydro-1-[5-(4-ethylbenzyl)thiophen-2-yl]-1-thio-D-glucitol] had a half-maximal inhibitory concentration (IC50) in test [1] of 114 µM.
In the case of `CCOc1ccc(Cc2cc([C@@H]3S[C@H](CO)[C@@H](O)[C@H](O)[C@H]3O)ccc2Cl)c(F)c1` [Compound 91, (1S)-1,5-Anhydro-1-[4-chloro-3-(2-fluoro-4-ethoxybenzyl)phenyl]-1-thio-D-glucitol], the IC50 in test [1] amounted to 0.11 µM; in test [2], 1.7 µM. In addition, in test [1], the SGLT1/SGLT2 came to 15.5.
With `COc1cc(C)c(Cc2ccc(C)cc2)cc1[C@@H]1S[C@H](CO)[C@@H](O)[C@H](O)[C@H]1O` [Compound 104, (1S)-1,5-Anhydro-1-[3-(4-methylbenzyl)-6-methoxy-4-methylphenyl]-1-thio-D-glucitol], the figures for the IC50 in test [1] and in test [2] were 0.034 µM and 1 µM, respectively. The SGLT1/SGLT2 in test [1] worked out at 29.8.
For `CCOc1ccc(Cc2cc([C@@H]3S[C@H](CO)[C@@H](O)[C@H](O)[C@H]3O)ccc2C)cc1` [Compound 86, (1S)-1,5-Anhydro-1-[3-(4-ethoxybenzyl)-4-methylphenyl]-1-thio-D-glucitol], in that order: 0.06 µM, 1.1 µM and 18.3.
The like results for `OC[C@H]1S[C@@H](c2ccc(Cl)c(Cc3ccc(O)cc3)c2)[C@H](O)[C@@H](O)[C@@H]1O` [Compound 94, (1S)-1,5-Anhydro-1-[4-chloro-3-(4-hydroxybenzyl)phenyl]-1-thio-D-glucitol] were, in that order, 0.25 µM, 0.3 µM and 1.3.
With `COc1cc(OC)c([C@@H]2S[C@H](CO)[C@@H](O)[C@H](O)[C@H]2O)cc1Cc1cc2ccccc2s1` [Compound 131, (1S)-1,5-Anhydro-1-[3-[(1-benzothien-2-yl)methyl]-4,6-dimethoxyphenyl]-1-thio-D-glucitol], the IC50 came to 0.89 µM in test [1] and 4.1 µM in test [2]. The SGLT1/SGLT2 in test [1] is reported as 4.7.
In the case of `COc1cc(Cl)c(Cc2ccc(C(C)C)cc2)cc1[C@@H]1S[C@H](CO)[C@@H](O)[C@H](O)[C@H]1O` [Compound 103, (1S)-1,5-Anhydro-1-[4-chloro-3-(4-isopropylbenzyl)-6-methoxyphenyl]-1-thio-D-glucitol], the IC50 stood at 0.069 µM in test [1] and 23.9 µM in test [2]. The SGLT1/SGLT2 in test [1] is 347.9.
`CCOc1ccc(Cc2cc([C@@H]3S[C@H](CO)[C@@H](O)[C@H](O)[C@H]3O)c(OC)cc2OC)cc1` [Compound 80, (1S)-1,5-Anhydro-1-[4,6-dimethoxy-3-(4-ethoxybenzyl)phenyl]-1-thio-D-glucitol]: the IC50 is 0.19 µM in test [1] and 2.9 µM in test [2].
Take `CCOc1ccc(Cc2cc([C@@H]3S[C@H](CO)[C@@H](O)[C@H](O)[C@H]3O)c(OC)cc2Cl)cc1` [Compound 99, (1S)-1,5-anhydro-1-[4-chloro-5-(4-ethoxybenzyl)-2-methoxyphenyl]-1-thio-D-glucitol]: in test [1], the IC50 was determined as 0.032 µM and the SGLT1/SGLT2 stood at 178.6. The molecule also had an IC50 in test [2] of 5.6 µM.
The like results for `CCc1ccc(Cc2cc([C@@H]3S[C@H](CO)[C@@H](O)[C@H](O)[C@H]3O)c(OC)cc2C)cc1` [Compound 101, (1S)-1,5-Anhydro-1-[3-(4-ethylbenzyl)-6-methoxy-4-methylphenyl]-1-thio-D-glucitol] were, in that order, 0.04 µM, 63.1 and 2.6 µM.
For `CCOc1ccc(Cc2cc([C@@H]3S[C@H](CO)[C@@H](O)[C@H](O)[C@H]3O)ccc2F)cc1` [Compound 81, (1S)-1,5-Anhydro-1-[3-(4-ethoxybenzyl)-4-fluorophenyl]-1-thio-D-glucitol], in that order: 0.6 µM, 10.9 and 6.5 µM.
